Measurements published in patent US20140066431A1, “Benzoxazepines as Inhibitors of PI3K/mTOR and Methods of Their Use and Manufacture” (Exelixis, Inc., priority 2010, published 2014).
Where two headings read alike, the source gives them in different places.

Experiments:
mTOR/GbL/Raptor (mTORC1) = mTOR/GbL/Raptor (mTORC1) (Homo sapiens, UniProt P42345); test: mTOR/GbL/Raptor (mTORC1) ELISA assay; format: biochemical
Experimental: The measurement of mTORC1 enzyme activity was performed in an ELISA assay format following the phosphorylation of 4E-BP1 protein. All experiments were performed in the 384-well format. Generally, 0.5 μL DMSO containing varying concentrations of the test compound was mixed with 15 μL enzyme solution. Kinase reactions were initiated with the addition of 15 μL of substrates-containing solution. The assay conditions were as follows; 0.2 nM mTORC1, 10 μM ATP and 50 nM NHis-tagged 4E-BP1 in 20 mM Hepes, pH 7.2, 1 mM DTT, 50 mM NaCl, 10 mM MnCl2, 0.02 mg/mL BSA, 0.01% CHAPS, 50 mM β-glycerophosphate. Following an incubation of 120 minutes at ambient temperature, 20 μL of the reaction volume was transferred to a Ni-Chelate-coated 384-well plate. The binding step of the 4E-BP1 protein proceeded for 60 minutes, followed by washing 4 times each with 50 μL of Tris-buffered saline solution (TBS). Anti-phospho-4E-BP1 rabbit-IgG (20 μL, 1:5000) in 5% BSA-TBST (0.2% Tween-20 in TBS) was added and further incubated for 60 minutes. Incubation with a secondary HRP-tagged anti-IgG was similarly performed after washing off the primary antibody (4 washes of 50 μL). Following the final wash step with TBST, 20 μL of SuperSignal ELISA Femto (Pierce Biotechnology) was added and the luminescence measured using an EnVision plate reader.

SK-OV-3 (PI3Kα H1047R) = test: pAKT (T308) ELISA assay, SK-OV-3; format: cell-based; details: Homo sapiens, PI3KαH1047R, IGF1, read-out: Cellular pAKT (T308) IC50 SK-OV-3
Experimental: (§1) In another embodiment, the pAKT ELISA Assay was performed by seeding cells onto 96-well plates (Corning, 3904) in their respective growth media at the densities listed in Table 3. Cells were incubated at 37° C., 5% CO2 for 48 h (except MDA-MB-453 cells which were cultured in the absence of CO2). Compounds were serially diluted in DMSO and subsequently diluted in serum-free DMEM. Test compounds were added to cells in serum-free DMEM at a final concentration of 0.3% DMSO and incubated for 3 h. Cells were lysed with 130 μL of ice-cold RIPA lysis buffer (50 mM Tris-HCl, pH 7.5; 0.5% sodium deoxycholic acid; 1% Triton X-100; 0.1% SDS; 150 mM NaCl) with protease and phosphatase inhibitors (1 mM EDTA, 1 mM NaF, 20 mM β-glycerophosphate, 1 mM Na-orthovanadate, Complete-Mini EDTA-free, Roche, 11836170001, and Phosphatase Inhibitor Cocktail I, Sigma, P2850), directly in 96-well plates. Cells were lysed on ice for 60-120 min at 4° C. The supernatants were added directly to capture ELISA plates previously pre-coated with rabbit anti-AKT capture antibody. […] The wells were measured for luminescence using a Wallac plate reader at wavelength of 560 nm. After normalization of pAKT signal to total AKT1 signal, IC50 values were determined relative to the DMSO-treated control.

PI3Kα = PI3Kα (Homo sapiens, UniProt P42336); test: PI3K biochemical assay (ATP consumption, luciferase-luciferin)
Experimental: PI3Kα activity is measured as the percent of ATP consumed following the kinase reaction using luciferase-luciferin-coupled chemiluminescence. Reactions were conducted in 384-well white, medium binding microtiter plates (Greiner). Kinase reactions were initiated by combining test compounds, ATP, substrate (PIP2), and kinase in a 20 μL volume in a buffer solution. The standard PI3Kalpha assay buffer is composed 50 mM Tris, pH 7.5, 1 mM EGTA, 10 mM MgCl2, 1 mM DTT and 0.03% CHAPS. The standard assay concentrations for enzyme, ATP, and substrate are 1.5 nM, 1 μM, and 10 μM, respectively. The reaction mixture was incubated at ambient temperature for approximately 2 h. Following the kinase reaction, a 10 μL aliquot of luciferase-luciferin mix (Promega Kinase-Glo) was added and the chemiluminescence signal measured using a Victor2 plate reader (Perkin Elmer). Total ATP consumption was limited to 40-60% and IC50 values of control compounds correlate well with literature references. Substituting PI3Kα with PI3Kβ, PI3Kγ, or PI3Kδ, the inhibitory activity of the compounds for the other isoforms of I3K were measured.

[1] = system: NCI-H460 (PI3K-E545K/KRAS-Q61H); test: pAKT (T308) ELISA assay, NCI-H460; format: cell-based; details: Homo sapiens, PI3KαE545K, read-out: Cellular pAKT (T308) IC50 NCI-H460
Experimental: as §1

Chain of PI3Kα (P42336 whole entry): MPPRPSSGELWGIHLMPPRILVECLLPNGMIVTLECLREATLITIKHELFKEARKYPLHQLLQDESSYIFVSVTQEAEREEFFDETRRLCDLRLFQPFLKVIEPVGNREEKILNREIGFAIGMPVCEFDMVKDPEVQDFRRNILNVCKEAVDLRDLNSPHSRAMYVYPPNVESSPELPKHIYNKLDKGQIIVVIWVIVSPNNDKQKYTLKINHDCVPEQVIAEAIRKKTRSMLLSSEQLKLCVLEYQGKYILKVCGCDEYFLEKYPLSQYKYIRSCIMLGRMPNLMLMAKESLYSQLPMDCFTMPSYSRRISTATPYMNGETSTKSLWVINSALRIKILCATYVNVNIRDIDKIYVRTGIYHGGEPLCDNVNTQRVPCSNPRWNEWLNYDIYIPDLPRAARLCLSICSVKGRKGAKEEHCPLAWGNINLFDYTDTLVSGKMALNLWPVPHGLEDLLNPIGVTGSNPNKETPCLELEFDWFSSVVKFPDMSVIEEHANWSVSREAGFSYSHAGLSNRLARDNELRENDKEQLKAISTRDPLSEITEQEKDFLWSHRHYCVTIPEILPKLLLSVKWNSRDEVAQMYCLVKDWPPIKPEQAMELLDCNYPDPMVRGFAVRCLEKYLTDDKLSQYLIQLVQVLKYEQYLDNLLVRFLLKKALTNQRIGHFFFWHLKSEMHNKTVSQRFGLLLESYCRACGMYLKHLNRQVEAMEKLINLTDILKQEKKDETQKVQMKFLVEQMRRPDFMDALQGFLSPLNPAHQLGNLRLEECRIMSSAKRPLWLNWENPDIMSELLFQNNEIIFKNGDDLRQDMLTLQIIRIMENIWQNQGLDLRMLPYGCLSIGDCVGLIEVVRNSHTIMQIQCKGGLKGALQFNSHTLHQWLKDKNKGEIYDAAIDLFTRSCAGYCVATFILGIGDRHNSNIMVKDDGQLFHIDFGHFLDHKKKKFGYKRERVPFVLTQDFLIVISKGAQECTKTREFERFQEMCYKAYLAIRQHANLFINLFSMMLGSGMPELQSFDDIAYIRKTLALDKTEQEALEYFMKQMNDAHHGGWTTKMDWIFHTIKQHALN
Chain of PI3Kα (P27986 whole entry partner): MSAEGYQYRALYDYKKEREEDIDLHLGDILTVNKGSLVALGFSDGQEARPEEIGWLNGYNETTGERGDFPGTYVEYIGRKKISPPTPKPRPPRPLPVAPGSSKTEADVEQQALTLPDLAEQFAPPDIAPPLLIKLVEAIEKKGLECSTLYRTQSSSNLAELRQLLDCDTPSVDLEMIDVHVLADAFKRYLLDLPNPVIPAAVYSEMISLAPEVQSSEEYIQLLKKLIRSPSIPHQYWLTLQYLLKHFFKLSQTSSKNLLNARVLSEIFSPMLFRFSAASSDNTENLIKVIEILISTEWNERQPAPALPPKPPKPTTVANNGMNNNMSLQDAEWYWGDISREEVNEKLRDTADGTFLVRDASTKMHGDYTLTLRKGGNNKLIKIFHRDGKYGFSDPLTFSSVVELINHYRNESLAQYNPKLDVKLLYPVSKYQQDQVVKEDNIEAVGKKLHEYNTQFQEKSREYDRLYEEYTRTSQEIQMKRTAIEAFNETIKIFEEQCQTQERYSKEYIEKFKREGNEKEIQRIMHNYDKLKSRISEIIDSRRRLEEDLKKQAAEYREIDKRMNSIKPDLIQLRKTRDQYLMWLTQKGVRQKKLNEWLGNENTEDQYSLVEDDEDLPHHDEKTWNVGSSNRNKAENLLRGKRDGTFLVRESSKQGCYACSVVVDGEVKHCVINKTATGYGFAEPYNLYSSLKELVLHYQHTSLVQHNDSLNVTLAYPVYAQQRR

IC50 (mTOR/GbL/Raptor (mTORC1); 4EBP1 as substrate for mTOR/GbL/raptor kinase, read-out: biochemical IC50 mTOR): 10.9 µM | IC50 (mTOR/GbL/Raptor (mTORC1); Table 5, read-out: Biochemical IC50 mTOR): 10.9 µM | IC50 (SK-OV-3 (PI3Kα H1047R)): > 30 µM | IC50 (PI3Kα; PIP2 as substrate, read-out: PI3K biochemical IC50 PI3Kα): 1780 nM | IC50 (PI3Kα; Table 5, read-out: Biochemical IC50 PI3Kα): 1780 nM | IC50 [1]: > 30 µM
SMILES: Cc1cc(C(C)Nc2ccccc2)c2nc(N3CCOCC3)cc(=O)n2c1 (stereo not drawn) [TGX-221, 7-methyl-2-(4-morpholinyl)-9-[1-(phenylamino)ethyl]-4H-pyrido[1,2-a]pyrimidin-4-one]
